Results from patent publication US20130059787A1, “METHODS OF USING HUMAN PROTEIN KINASE C DELTA VIII AS A BIOMARKER” (UNITED STATES DEPARTMENT OF VETERAN AFFAIRS, priority 2010, published 2013).

Legend:
PKCδVIII = assay: RT-PCR with human PKCδ primers in primary neuronal cells from hippocampus; assay type: cell-based; conditions: RA about 24 h
Experimental: FIG. 2 is a series of images indicating the expression of PKCδVIII. (a) an image showing that both PKCδI and PKCδVIII were detected and the levels of PKCδVIII increased with retinoic acid treatment. Primary neuronal cells from hippocampus were treated with RA for about 24 h. Total RNA was extracted and RT-PCR performed with primers described in FIG. 1 which detect both PKCδI and PKCδVIII simultaneously. (b) an image showing that the expression of PKCδVIII is tissue-specific with the highest levels seen in the fetal brain. Human fetal tissue specific cdNAs were used in PCR analysis using PKCδVIII-specific primers. (i) Liver (ii) kidney (iii) heart (iv) spleen (v) brain. About five percent products were separated on PAGE and detected by silver nitrate staining […]
Using PKCδ primers, PKCδI and PKCδVIII are detected simultaneously: PKCδI is 368 bp and PKCδVIII is 461 bp. […] About 5% of products were resolved on 6% PAGE gels and detected by silver staining. The PCR reaction was optimized for linear range amplification to allow for quantification of products. […]
The inventors looked for the expression of PKCδ isozymes in primary neuronal cells to verify the expression pattern of PKCδVIII. […] PKCδI and PKCδVIII isoforms were detected and the levels of PKCδVIII increased with retinoic acid treatment (FIG. 2a). PKCδVIII was not detected in aorta smooth muscle cells or skeletal muscle cells (data not shown). […]

A1 = assay: Apoptosis micro-array (SuperArray, real-time RT-PCR) in NT2 cells; assay type: cell-based, human; conditions: RA about 24 h vs control
Text: (§1) FIG. 4 is a 3D profile of the results from the apoptosis micro-array. The graph represents an average of control and RA (1 day) samples carried out in triplicate. The average ΔCt=Ct(gene of interest)−Ct(housekeeping gene).
(§2) The inventors have shown that retinoic acid increases the levels of PKCδVIII in NT2 cells. An apoptosis micro-array (SuperArray, catalog #PAHS-012A) was used to determine the profiles of proteins associated with the apoptotic cascade. RNA was isolated from control and RA (about 24 h) treated NT2 cells and used in the analysis. Real-time RT-PCR was performed according to the manufacturers' protocol and data was analyzed by SuperArray software (FIG. 4). The inventors observed about a 6-fold increase in Bcl-2 levels which were concurrent with an increase in PKCδVIII levels following RA treatment.

Bcl-2 = assay: as above; assay type: cell-based, human; conditions: RA about 24 h vs control
Text: as §1, §2

Mcl-1 = assay: as above; assay type: cell-based, human; conditions: RA about 24 h vs control
Text: as §1, §2

PKCδ promoter = assay: pGlow-PKCδ promoter reporter transfected into NT2 cells; assay type: cell-based, human; conditions: RA treatment
Text: Computational analysis of PKCδ promoter indicated putative RAREs. pGlow-PKCδ promoter (gift from Dr. Stuart H. Yuspa, NCI) was transfected into NT2 cells to determine if RA regulates transcription of the PKCδ gene via RARE on the PKCδ promoter region. […] This was verified by western blot analysis using GFP antibody to confirm up-regulation of PKCδ promoter by ATRA treatment.

PKCδVIII mRNA = conditions: RA about 24 h; Jiang et al. 2008; cited from earlier work

Question: What does the source list for `CC1=C(/C=C/C(C)=C/C=C/C(C)=C/C(=O)O)C(C)(C)CCC1` [RA, all-trans-retinoic acid]?
Answer: levels of PKCδVIII (RT-PCR) (PKCδVIII): increased; A1 levels (A1): Moderate increases; increase in Bcl-2 levels (Bcl-2): ~6 fold; Mcl-1 levels (Mcl-1): Moderate increases; fluorescence of pGlow-PKCδ promoter compared to control samples (PKCδ promoter): four-fold increase; expression of PKCδVIII in NT2 cells (PKCδVIII mRNA): significantly increases
